Experimental findings from patent US20240116845A1, “INDENE COMPOUNDS, PHARMACEUTICAL COMPOSITIONS THEREOF, AND THEIR THERAPEUTIC APPLICATIONS” (NucMito Pharmaceuticals Co., Ltd., priority 2021, published 2024) are described below.

Type in all cases: cell-based
For test [1], the system named is MDA-MB-231 (breast cancer). As to the kind of experiment: Antiproliferative activity, CCK-8 cell viability. Conditions: Homo sapiens, 72 h, read-out: Inhibition of Cancerous Cells, MDA-MB-231; for inhibition at 3.3 µM: compound concentration of 3.3 μM; for inhibition at 10 µM: compound concentration of 10 μM; for inhibition at 30 µM: compound concentration of 30 μM. The method in brief: (§1)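 Cells in DMEM with 10% FBS were treated with compound at 3.3, 10 or 30 μM for 72 h at 37°C. Viability was read by CCK-8 absorbance at 450 nm and expressed relative to DMSO-treated cells. Growth inhibition was binned as ≥50%, 30–50% or <30%.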

The subject of test [2] is HepG2 (liver cancer). As to the kind of experiment: Antiproliferative activity, CCK-8 cell viability. The conditions noted are these: Homo sapiens, 72 h, read-out: Inhibition of Cancerous Cells, HepG2; for inhibition at 3.3 µM: compound concentration of 3.3 μM; for inhibition at 10 µM: compound concentration of 10 μM; for inhibition at 30 µM: compound concentration of 30 μM. In a few lines: as §1

For test [3], the system named is A549 (lung adenocarcinoma). As to the kind of experiment: Antiproliferative activity, CCK-8 cell viability. Conditions: Homo sapiens, 72 h, read-out: Inhibition of Cancerous Cells, A549; for inhibition at 3.3 µM: compound concentration of 3.3 μM; for inhibition at 10 µM: compound concentration of 10 μM; for inhibition at 30 µM: compound concentration of 30 μM.
The subject of test [4] is HeLa (cervical cancer). As to the kind of experiment: Antiproliferative activity, CCK-8 cell viability. Conditions: Homo sapiens, 72 h, read-out: Inhibition of Cancerous Cells, HELA; for inhibition at 3.3 µM: compound concentration of 3.3 μM; for inhibition at 10 µM: compound concentration of 10 μM; for inhibition at 30 µM: compound concentration of 30 μM.
Test [5] concerns B16F10 (malignant melanoma). Nature of the test: Antiproliferative activity, CCK-8 cell viability. Conditions: Mus musculus, B16-F10, 72 h, read-out: Inhibition of Cancerous Cells, B16F10; for inhibition at 3.3 µM: compound concentration of 3.3 μM; for inhibition at 10 µM: compound concentration of 10 μM; for inhibition at 30 µM: compound concentration of 30 μM. In a few lines: as §1

The subject of test [6] is A431 (epidermoid carcinoma). Nature of the test: Antiproliferative activity, CCK-8 cell viability. The conditions noted are these: Homo sapiens, A-431, 72 h, read-out: Inhibition of Cancerous Cells, A431; for inhibition at 3.3 µM: compound concentration of 3.3 μM; for inhibition at 10 µM: compound concentration of 10 μM; for inhibition at 30 µM: compound concentration of 30 μM. The method in brief:
as §1

In test [7] the test system is SW480 (colon cancer). Nature of the test: Antiproliferative activity, CCK-8 cell viability. Conditions: Homo sapiens, 72 h, read-out: Inhibition of Cancerous Cells, SW480; for inhibition at 3.3 µM: compound concentration of 3.3 μM; for inhibition at 10 µM: compound concentration of 10 μM; for inhibition at 30 µM: compound concentration of 30 μM. The method in brief: as §1

For test [8], the system named is alpha-smooth muscle actin (α-SMA). As to the kind of experiment: Inhibition of TGF-β induced expression of alpha-smooth muscle actin in CFSC cells (western blot). The conditions noted are these: compound at 10 μM, TGF-β (10 ng/mL), 24 hours. In a few lines: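 Rat CCl4-treated hepatic stellate (CFSC) cells in serum-free DMEM were given compound at 10 μM plus TGF-β 10 ng/mL for 24 h at 37 °C. α-SMA measured by western blot with β-actin, bands quantified densitometrically. Percent inhibition is the decrease in band intensity versus TGF-β alone.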
For orientation: In western blotting, separated proteins are transferred to a membrane and probed.

Structures are written as SMILES.

The term inhibition denotes the drop in the measured response relative to a control, in per cent. As for `CC1=C(CC(=O)O)c2cc(F)ccc2/C1=C\c1cccc(COc2ccccc2)c1` [Compound A5, (Z)-2-(5-Fluoro-2-methyl-1-(3-(phenoxymethyl)benzylidene)-1H-inden-3-yl)acetic acid], the inhibition at 3.3 µM in test [1] was not below 50%; in test [2], not below 50%; in test [3], 30 to 50%; in test [4] it was less than 30%; in test [5], less than 30%; in test [6], less than 30%. Further, in test [7], the inhibition at 3.3 µM was not below 50%. The inhibition at 10 µM in test [1] was not below 50%; in test [2], not below 50%; in test [3], 30 to 50%; in test [4], 30 to 50%; in test [5] it was 30 to 50%; in test [6], 30 to 50%. Also, the inhibition at 10 µM was not below 50% in test [7] and not below 80% in test [8]. The inhibition at 30 µM in test [1], in test [2], in test [3], in test [4], in test [5] and in test [6] was not below 50% in each case. Besides, in test [7], the inhibition at 30 µM was not below 50%.
As to `CC1=C(CC(=O)NO)c2cc(F)ccc2/C1=C\c1ccc(C(C)(C)C)cc1` [Compound D42, (Z)-2-(1-(4-(Tert-butyl)benzylidene)-5-fluoro-2-methyl-1H-inden-3-yl)-N-hydroxyacetamide], the inhibition at 3.3 µM was not below 50% in test [1]; less than 30% in test [2]; not below 50% in test [3]; 30 to 50% in test [4]; not below 50% in test [5]; not below 50% in test [6]. In test [7], the inhibition at 3.3 µM is not below 50%. For the same molecule, the inhibition at 10 µM in test [1] was not below 50%; in test [2], 30 to 50%; in test [3], not below 50%; in test [4] it was not below 50%; in test [5], not below 50%; in test [6], not below 50%. For the same molecule, the inhibition at 10 µM in test [7] was not below 50%; in test [8], 50 to 80%. The inhibition at 30 µM in test [1], in test [2], in test [3], in test [4], in test [5] and in test [6] was not below 50% throughout. In addition, the inhibition at 30 µM in test [7] was not below 50%.
Turning to `COc1ccc2c(c1)/C(=C\c1ccc(COc3ccccc3)cc1)C(C)=C2CC(=O)O` [Compound A12, (Z)-2-(6-Methoxy-2-methyl-1-(4-(phenoxymethyl)benzylidene)-1H-inden-3-yl)acetic acid], the inhibition at 3.3 µM is less than 30% in test [1]; 30 to 50% in test [2]; 30 to 50% in test [3]; 30 to 50% in test [4]; not below 50% in test [5]; less than 30% in test [6]. Also, the inhibition at 3.3 µM in test [7] is not below 50%. Further, the inhibition at 10 µM in test [1] was 30 to 50%; in test [2], 30 to 50%; in test [3], not below 50%; in test [4], not below 50%; in test [5] it was not below 50%; in test [6], less than 30%. In addition, the inhibition at 10 µM in test [7] is not below 50%; in test [8], not below 80%. Moreover, the inhibition at 30 µM in test [1], in test [2], in test [3], in test [4], in test [5] and in test [6] was not below 50% in each case. The inhibition at 30 µM in test [7] is not below 50%.
As for `CC1=C(CC(=O)O)c2cc(F)ccc2/C1=C\c1cccc(COc2ccc(F)cc2F)c1` [Compound A19, 2-[(1Z)-1-({3-[(2,4-Difluorophenoxy)methyl]phenyl}methylidene)-5-fluoro-2-methyl-1H-inden-3-yl]acetic acid], the inhibition at 3.3 µM in test [1] was not below 50%; in test [2] it was 30 to 50%; in test [3], less than 30%; in test [4], 30 to 50%; in test [5], not below 50%; in test [6], not below 50%. In test [7], the inhibition at 3.3 µM was not below 50%. The inhibition at 10 µM was not below 50% in test [1]; not below 50% in test [2]; 30 to 50% in test [3]; not below 50% in test [4]; not below 50% in test [5]; not below 50% in test [6]. The inhibition at 10 µM is not below 50% in test [7] and not below 80% in test [8]. Also, the inhibition at 30 µM in test [1], in test [2], in test [3], in test [4], in test [5] and in test [6] was not below 50% throughout. Besides, the inhibition at 30 µM in test [7] is not below 50%.
On to `CC1=C(CC(=O)O)c2cc(F)cc(F)c2/C1=C\c1ccc(Oc2ccc(F)cc2)cc1` [Compound D15, 2-[(1Z)-5,7-Difluoro-2-methyl-1-({4-[4-fluorophenoxy]phenyl}methylidene)-1H-inden-3-yl]acetic acid], for which the inhibition at 3.3 µM in test [1] is not below 50%; in test [2] it was not below 50%; in test [3] it was 30 to 50%; in test [4], less than 30%; in test [5], less than 30%; in test [6], less than 30%. Besides, in test [7], the inhibition at 3.3 µM is less than 30%. The inhibition at 10 µM in test [1] was not below 50%; in test [2], not below 50%; in test [3], not below 50%; in test [4] it was not below 50%; in test [5], 30 to 50%; in test [6], 30 to 50%. Also, the inhibition at 10 µM is not below 50% in test [7] and not below 80% in test [8]. The inhibition at 30 µM in test [1], in test [2], in test [3], in test [4], in test [5] and in test [6] was not below 50% each time. Further, the inhibition at 30 µM in test [7] was not below 50%.
Take `CC1=C(CC(=O)O)c2cc(F)ccc2/C1=C\c1ccc(Oc2ccc(F)cc2)cc1C` [Compound D14, 2-[(1Z)-1-{[2-Methyl-4-(4-fluorophenoxy)phenyl]methylidene}-5-fluoro-2-methyl-1H-inden-3-yl]acetic acid]: the inhibition at 3.3 µM is 30 to 50% in test [1]; 30 to 50% in test [2]; 30 to 50% in test [3]; less than 30% in test [4]; not below 50% in test [5]; 30 to 50% in test [6]. Further, the inhibition at 3.3 µM in test [7] was 30 to 50%. In addition, the inhibition at 10 µM in test [1] was not below 50%; in test [2], 30 to 50%; in test [3], not below 50%; in test [4] it was 30 to 50%; in test [5] it was not below 50%; in test [6], not below 50%. In addition, the inhibition at 10 µM is not below 50% in test [7] and not below 80% in test [8]. Also, the inhibition at 30 µM in test [1], in test [2], in test [3], in test [4], in test [5] and in test [6] was not below 50% in each case. Further, in test [7], the inhibition at 30 µM was not below 50%.
